Experimental data reported in US20250223303A1, “TRICYCLIC BORONIC ACID DERIVATIVE, AND PREPARATION METHOD THEREFOR AND APPLICATION THEREOF” (priority 2021, published 2025).

What was measured:
[1] = test system: Klebsiella pneumoniae ATCC BAA-1705; assay: MIC test of compounds in combination with antibiotics, Klebsiella pneumoniae ATCC BAA-1705; conditions: for MIC of biapenem in combination with compound, Klebsiella pneumoniae ATCC BAA-1705 KPC-2: Biapenem + compound (8 μg/mL); for MIC of meropenem in combination with compound, Klebsiella pneumoniae ATCC BAA-1705 KPC-2: Meropenem + compound (8 μg/mL)
[2] = test system: Klebsiella pneumoniae ATCC BAA-2470; assay: MIC test of compounds in combination with antibiotics, Klebsiella pneumoniae ATCC BAA-2470; conditions: for MIC of biapenem in combination with compound, Klebsiella pneumoniae ATCC BAA-2470 NDM-1: Biapenem + compound (8 μg/mL); for MIC of meropenem in combination with compound, Klebsiella pneumoniae ATCC BAA-2470 NDM-1: Meropenem + compound (8 μg/mL)
Description: (§1) Strain preparation: the strains to be tested were streaked from glycerol tube at −80° C. onto Mueller Hinton II Agar plates. The plates were then placed in a 37° C. incubator and cultured for 18-24 hours.
(§2) Media preparation: CAMHB (Mueller Hinton II Broth): 22 g of powder was dissolved in 1 L of purified water and sterilized at 121° C. for 10 min for use. Saline: 8.5 g NaCl was dissolved in 1 L of pure water and sterilized at 121° C. for 30 min for use.
(§3) Preparation of compound and antibiotic stock solutions: the compound and antibiotic were dissolved in DMSO or water to 12.8 mg/mL.
(§4) 2-Fold gradient dilution of antibiotics: 300 μL of CAMHVIB medium was added to columns 2-12 of a 96-deep well plate. In column 1, 24 μL of antibiotic stock solution and 576 µL of CAMHB medium were added and mixed well, with a concentration of 512 μg/mL. 300 µL of antibiotic solution was transferred from the column 1 to the second column and mixed well. The process was repeated until column 11, and the column 12 was a blank control.
(§5) Dilution of combined compounds: the compound was diluted 400-fold to 32 μg/ml with CAMHB medium.
(§6) Working solution aliquoting: 25 μL of antibiotics was aliquoted into the 96-U bottom plate with a pipette, and 25 μL of combined compound was added to each well. If antibiotics were used alone, 25 μL of CAMHB medium was added.
(§7) Inoculum solution preparation: 5-6 single colonies were selected from the plate and suspended in normal saline. The bacterial suspension was adjusted to 0.2 (i.e., 0.5 McFarland turbidity, with a bacterial concentration was about 1 to 2×10^8 CFU/mL) with a turbidity meter. The bacterial suspension was diluted 100-fold with CAMHB medium for later use.
(§8) Inoculation: 50 μL of inoculum solution was transferred to the above 50 μL compound plate with a pipette.
(§9) Culture: The 96-U bottom plate was placed in an incubator at 37° C. for 18 to 20 h.
(§10) After the incubation, bacterial growth was visually observed, and the test plate was photographed and recorded.

[3] = test system: Acinetobacter baumannii ARLG-1791 OXA-23; assay: MIC test of compounds in combination with antibiotics, Acinetobacter baumannii ARLG-1791; conditions: for MIC of biapenem in combination with compound, Acinetobacter baumannii ARLG-1791 OXA-23: Biapenem + compound (8 μg/mL); for MIC of meropenem in combination with compound, Acinetobacter baumannii ARLG-1791 OXA-23: Meropenem + compound (8 μg/mL)
[4] = test system: Klebsiella pneumoniae ARLG 1196; assay: MIC test of compounds in combination with antibiotics, Klebsiella pneumoniae ARLG 1196; conditions: for MIC of biapenem in combination with compound, Klebsiella pneumoniae ARLG-1196 CTM-1 group, SHV, NDM, TEM: Biapenem + compound (8 μg/mL); for MIC of meropenem in combination with compound, Klebsiella pneumoniae ARLG-1196 CTM-1 group, SHV, NDM, TEM: Meropenem + compound (8 μg/mL)
[5] = test system: Acinetobacter baumannii ARLG-1852 OXA-23; assay: MIC test of compounds in combination with antibiotics, Acinetobacter baumannii ARLG-1852; conditions: for MIC of biapenem in combination with compound, Acinetobacter baumannii ARLG-1852 OXA-23: Biapenem + compound (8 μg/mL); for MIC of meropenem in combination with compound, Acinetobacter baumannii ARLG-1852 OXA-23: Meropenem + compound (8 μg/mL)
[6] = test system: Acinetobacter baumannii ARLG-1809 OXA-23; assay: MIC test of compounds in combination with antibiotics, Acinetobacter baumannii ARLG-1809; conditions: for MIC of biapenem in combination with compound, Acinetobacter baumannii ARLG-1809 OXA-23: Biapenem + compound (8 μg/mL); for MIC of meropenem in combination with compound, Acinetobacter baumannii ARLG-1809 OXA-23: Meropenem + compound (8 μg/mL)
[7] = test system: Escherichia coli ARLG 2829; assay: MIC test of compounds in combination with antibiotics, Escherichia coli ARLG 2829; conditions: for MIC of biapenem in combination with compound, Escherichia coli ARLG-2829 NDM-5, OXA-1: Biapenem + compound (8 μg/mL); for MIC of meropenem in combination with compound, Escherichia coli ARLG-2829 NDM-5, OXA-1: Meropenem + compound (8 μg/mL)
Description: as §1, §2, §3, §4, §5, §6, §7, §8, §9, §10

[8] = test system: Acinetobacter baumannii ARLG-1853 OXA-23; assay: MIC test of compounds in combination with antibiotics, Acinetobacter baumannii ARLG-1853; conditions: for MIC of biapenem in combination with compound, Acinetobacter baumannii ARLG-1853 OXA-23: Biapenem + compound (8 μg/mL); for MIC of meropenem in combination with compound, Acinetobacter baumannii ARLG-1853 OXA-23: Meropenem + compound (8 μg/mL)
Description: as §4, §5, §6, §7, §8, §9

[9] = test system: Acinetobacter baumannii WX-AB013; assay: MIC test of compounds in combination with antibiotics, Acinetobacter baumannii WX-AB013; conditions: for MIC of biapenem in combination with compound, Acinetobacter baumannii WX-AB013: Biapenem + compound (8 μg/mL); for MIC of meropenem in combination with compound, Acinetobacter baumannii WX-AB013: Meropenem + compound (8 μg/mL)
Description: as §4, §5, §6, §7, §8, §9

[10] = test system: Acinetobacter baumannii WX-AB005; assay: MIC test of compounds in combination with antibiotics, Acinetobacter baumannii WX-AB005; conditions: for MIC of biapenem in combination with compound, Acinetobacter baumannii WX-AB005: Biapenem + compound (8 μg/mL); for MIC of meropenem in combination with compound, Acinetobacter baumannii WX-AB005: Meropenem + compound (8 μg/mL)
Description: as §4, §5, §6, §7, §8, §9

| SMILES | MIC of biapenem in combination with compound, Klebsiella pneumoniae ATCC BAA-1705 KPC-2 [1] [µg/mL] | MIC of meropenem in combination with compound, Klebsiella pneumoniae ATCC BAA-1705 KPC-2 [1] [µg/mL] | MIC of biapenem in combination with compound, Klebsiella pneumoniae ATCC BAA-2470 NDM-1 [2] [µg/mL] | MIC of meropenem in combination with compound, Klebsiella pneumoniae ATCC BAA-2470 NDM-1 [2] [µg/mL] | MIC of biapenem in combination with compound, Acinetobacter baumannii ARLG-1791 OXA-23 [3] [µg/mL] | MIC of meropenem in combination with compound, Acinetobacter baumannii ARLG-1791 OXA-23 [3] [µg/mL] | MIC of biapenem in combination with compound, Klebsiella pneumoniae ARLG-1196 CTM-1 group, SHV, NDM, TEM [4] [µg/mL] | MIC of meropenem in combination with compound, Klebsiella pneumoniae ARLG-1196 CTM-1 group, SHV, NDM, TEM [4] [µg/mL] | MIC of biapenem in combination with compound, Acinetobacter baumannii ARLG-1852 OXA-23 [5] [µg/mL] | MIC of meropenem in combination with compound, Acinetobacter baumannii ARLG-1852 OXA-23 [5] [µg/mL] | MIC of biapenem in combination with compound, Acinetobacter baumannii ARLG-1809 OXA-23 [6] [µg/mL] | MIC of meropenem in combination with compound, Acinetobacter baumannii ARLG-1809 OXA-23 [6] [µg/mL] | MIC of biapenem in combination with compound, Escherichia coli ARLG-2829 NDM-5, OXA-1 [7] [µg/mL] | MIC of meropenem in combination with compound, Escherichia coli ARLG-2829 NDM-5, OXA-1 [7] [µg/mL] | MIC of biapenem in combination with compound, Acinetobacter baumannii ARLG-1853 OXA-23 [8] [µg/mL] | MIC of meropenem in combination with compound, Acinetobacter baumannii ARLG-1853 OXA-23 [8] [µg/mL] | MIC of biapenem in combination with compound, Acinetobacter baumannii WX-AB013 [9] [µg/mL] | MIC of meropenem in combination with compound, Acinetobacter baumannii WX-AB013 [9] [µg/mL] | MIC of biapenem in combination with compound, Acinetobacter baumannii WX-AB005 [10] [µg/mL] | MIC of meropenem in combination with compound, Acinetobacter baumannii WX-AB005 [10] [µg/mL] |
| --- | --- | --- | --- | --- | --- | --- | --- | --- | --- | --- | --- | --- | --- | --- | --- | --- | --- | --- | --- | --- |
| C[C@H](Sc1ccc2c(c1C(=O)O)OB(O)[C@@H]1C[C@H]21)[C@@H]1CCCO1 [Compound 18-a] | 0.5 | 1 | 0.5 | 8 | 0.5 | 8 | ≤0.125 | 2 | 0.5 | 2 | 2 | 4 | ≤0.125 | 2 | 0.5 | 2 | 0.5 | 4 | 4 | 8 |
| CC(Sc1ccc2c(c1C(=O)O)OB(O)C1CC21)C1CCOCC1 (single isomer, unassigned) [Compound 17-b] | 2 | 8 | 0.25 | 64 | 2 | 16 | 0.5 | 8 | 0.5 | 8 | 4 | 32 | 0.25 | 4 | 1 | 16 | 2 | 16 | 4 | 32 |
| CC(Sc1ccc2c(c1C(=O)O)OB(O)C1CC21)C1CCOCC1 (single isomer, unassigned) [Compound 17-a] | 0.5 | 8 | 0.25 | 32 | 2 | 16 | 0.5 | 8 | 0.5 | 4 | 4 | 32 | 0.25 | 8 | 1 | 8 | 1 | 8 | 4 | 32 |
